Laboratory results from PubChem BioAssay AID250 (DTP/NCI, 2004).
Several values for one entry are separate records, joined by “and”; a condition that tells them apart may be missing. Equal values may be shown once. Toxic doses and inconclusive results are not listed.

Tested on: BDF1 mice, L1210 leukemia sc, survival T/C
Test: NCI In Vivo Anticancer Drug Screen. Data for tumor model L1210 Leukemia (subcutaneous) in B6D2F1 (BDF1) mice
Details: higher = longer survival
Procedure, shortened: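 Tumors were transplanted into mice, the animals were treated with compound, survival or tumor size was then measured, and treated values were divided by vehicle-control values.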

[1] = endpoint: median survival time, dose: 23.0 mg/kg/injection, schedule: Q01DX Z (sc), vehicle: methylcellulose (MC)
[2] = endpoint: median survival time, dose: 14.0 mg/kg/injection, schedule: Q01DX Z (sc), vehicle: water
[3] = endpoint: median survival time, dose: 3.0 mg/kg/injection, schedule: Q01DX Z (sc), vehicle: saline

`CN(Cc1cnc2nc(N)nc(N)c2n1)c1c(Cl)cc(C(=O)NC(CCC(=O)O)C(=O)O)cc1Br` (stereo unspecified) was tested, and the T/C (endpoint: median survival time, dose: 1.8 mg/kg/injection, schedule: Q## X Z (sc), vehicle: other) was 266 % of control, the T/C (endpoint: median survival time, dose: 3.0 mg/kg/injection, schedule: Q## X Z (sc), vehicle: other) was 288 % of control and the T/C (endpoint: median survival time, dose: 4.9 mg/kg/injection, schedule: Q01DX Z (ip), vehicle: other) was 111 % of control. The T/C (endpoint: median survival time, dose: 5.0 mg/kg/injection, schedule: Q01DX Z (sc), vehicle: other) was 100 % of control, the T/C (endpoint: median survival time, dose: 5.0 mg/kg/injection, schedule: Q## X Z (sc), vehicle: other) was 422 % of control and the T/C (endpoint: median survival time, dose: 8.3 mg/kg/injection, schedule: Q01DX Z (ip), vehicle: other) was 122 % of control. The T/C (endpoint: median survival time, dose: 8.4 mg/kg/injection, schedule: Q01DX Z (sc), vehicle: other) was 111 % of control, the T/C (endpoint: median survival time, dose: 8.4 mg/kg/injection, schedule: Q## X Z (sc), vehicle: other) was 100 % of control and the T/C (endpoint: median survival time, dose: 14.0 mg/kg/injection, schedule: Q01DX Z (sc), vehicle: other) was 244 % of control. The T/C (endpoint: median survival time, dose: 14.1 mg/kg/injection, schedule: Q01DX Z (ip), vehicle: other) was 122 % of control, the T/C (endpoint: median survival time, dose: 23.0 mg/kg/injection, schedule: Q01DX Z (sc), vehicle: other) was 283 % of control and 300 % of control and the T/C (endpoint: median survival time, dose: 23.4 mg/kg/injection, schedule: Q01DX Z (ip), vehicle: other) was 283 % of control. The T/C (endpoint: median survival time, dose: 38.9 mg/kg/injection, schedule: Q01DX Z (ip), vehicle: other) was 305 % of control, the T/C (endpoint: median survival time, dose: 39.0 mg/kg/injection, schedule: Q01DX Z (sc), vehicle: other) was 322 % of control and 338 % of control and the T/C (endpoint: median survival time, dose: 39.0 mg/kg/injection, schedule: Q## X Z (sc), vehicle: other) was 104 % of control. For the same compound, the T/C (endpoint: median survival time, dose: 64.8 mg/kg/injection, schedule: Q01DX Z (ip), vehicle: other) was 300 % of control, the T/C (endpoint: median survival time, dose: 65.0 mg/kg/injection, schedule: Q01DX Z (sc), vehicle: other) was 316 % of control and 333 % of control and the T/C (endpoint: median survival time, dose: 65.0 mg/kg/injection, schedule: Q## X Z (sc), vehicle: other) was 104 % of control. For the same compound, the T/C (endpoint: median survival time, dose: 107.0 mg/kg/injection, schedule: Q01DX Z (ip), vehicle: other) was 244 % of control, the T/C (endpoint: median survival time, dose: 108.0 mg/kg/injection, schedule: Q01DX Z (sc), vehicle: other) was 211 % of control and 233 % of control and the T/C (endpoint: median survival time, dose: 108.0 mg/kg/injection, schedule: Q## X Z (sc), vehicle: other) was 104 % of control. The T/C (endpoint: median survival time, dose: 179.0 mg/kg/injection, schedule: Q01DX Z (ip), vehicle: other) was 177 % of control, the T/C (endpoint: median survival time, dose: 180.0 mg/kg/injection, schedule: Q01DX Z (sc), vehicle: other) was 166 % of control and the T/C (endpoint: median survival time, dose: 180.0 mg/kg/injection, schedule: Q## X Z (sc), vehicle: other) was 109 % of control. The T/C (endpoint: median survival time, dose: 300.0 mg/kg/injection, schedule: Q## X Z (sc), vehicle: other) was 114 % of control and the T/C (endpoint: median survival time, dose: 500.0 mg/kg/injection, schedule: Q## X Z (sc), vehicle: other) was 114 % of control.

In the case of `O=C1OC(C(O)CO)C(O)=C1O` (stereo unspecified), the T/C (endpoint: mean survival time, dose: 0.2 mg/kg/injection, schedule: Q08HX010 (ip), vehicle: other) is reported as 91 % of control, the T/C (endpoint: mean survival time, dose: 0.25 mg/kg/injection, schedule: Q08HX010 (ip), vehicle: other) is reported as 95 % of control and the T/C (endpoint: mean survival time, dose: 0.3 mg/kg/injection, schedule: Q08HX010 (ip), vehicle: other) is reported as 93 % of control. For the same compound, the T/C (endpoint: mean survival time, dose: 0.5 mg/kg/injection, schedule: Q08HX010 (ip), vehicle: other) was 84 % of control.

`O=C(Nc1ccc(C2=NCCCN2)cc1)c1ccc(C(=O)Nc2ccc(C3=NCCCN3)cc2)cc1` was tested, and the T/C (endpoint: median survival time, dose: 3.0 mg/kg/injection, schedule: Q01DX Z (sc), vehicle: methylcellulose (MC)) was 190 % of control, the T/C (endpoint: median survival time, dose: 5.0 mg/kg/injection, schedule: Q01DX Z (sc), vehicle: methylcellulose (MC)) was 195 % of control and the T/C (endpoint: median survival time, dose: 8.4 mg/kg/injection, schedule: Q01DX Z (sc), vehicle: methylcellulose (MC)) was 165 % of control. The T/C (endpoint: median survival time, dose: 14.0 mg/kg/injection, schedule: Q01DX Z (sc), vehicle: methylcellulose (MC)) was 155 % of control and the T/C [1] was 150 % of control.

`O=C(NP(=O)(N1CC1)N1CC1)OCc1ccccc1` was tested, and the T/C (endpoint: median survival time, dose: 3.0 mg/kg/injection, schedule: Q01DX Z (sc), vehicle: water) was 111 % of control, the T/C [2] was 111 % of control and the T/C (endpoint: median survival time, dose: 23.0 mg/kg/injection, schedule: Q01DX Z (sc), vehicle: water) was 111 % of control.

With `O=C(O)c1ccc([N+](=O)[O-])cc1` the T/C [1] was 104 % of control.

For `CCOC(=O)c1ccc(N)nc1`, the T/C (endpoint: median survival time, dose: 1.81 mg/kg/injection, schedule: Q01DX Z (sc), vehicle: water) was 100 % of control, the T/C (endpoint: median survival time, dose: 3.02 mg/kg/injection, schedule: Q01DX Z (sc), vehicle: water) was 100 % of control and the T/C (endpoint: median survival time, dose: 5.04 mg/kg/injection, schedule: Q01DX Z (sc), vehicle: water) was 100 % of control. The T/C (endpoint: median survival time, dose: 8.4 mg/kg/injection, schedule: Q01DX Z (sc), vehicle: water) was 100 % of control, the T/C [2] was 100 % of control and the T/C (endpoint: median survival time, dose: 23.3 mg/kg/injection, schedule: Q01DX Z (sc), vehicle: water) was 100 % of control. The T/C (endpoint: median survival time, dose: 38.9 mg/kg/injection, schedule: Q01DX Z (sc), vehicle: water) was 100 % of control.

For `CC(C)Sc1ncnc2nc[nH]c12`, the T/C (endpoint: median survival time, dose: 38.9 mg/kg/injection, schedule: Q01DX Z (sc), vehicle: methylcellulose (MC)) was 110 % of control, the T/C (endpoint: median survival time, dose: 64.8 mg/kg/injection, schedule: Q01DX Z (sc), vehicle: methylcellulose (MC)) was 155 % of control and the T/C (endpoint: median survival time, dose: 108.0 mg/kg/injection, schedule: Q01DX Z (sc), vehicle: methylcellulose (MC)) was 155 % of control.

With `CCCCN(CCCC)P(=O)(N1CC1)N1CC1` the T/C (endpoint: median survival time, dose: 1.8 mg/kg/injection, schedule: Q01DX Z (sc), vehicle: saline) was 110 % of control and the T/C [3] was 110 % of control.

`COC(=O)[C@@H]1c2cc3c(c(O)c2[C@@H](OC2OC(C)C(OC)C(C)(OC)C2OC)C[C@]1(C)O)C(=O)c1c(O)cc2c(c1C3=O)O[C@H]1O[C@]2(C)[C@H](O)[C@@H](N(C)C)[C@@H]1O` (stereo partly specified) was tested, and the T/C [3] was 105 % of control, the T/C (endpoint: median survival time, dose: 5.0 mg/kg/injection, schedule: Q01DX Z (sc), vehicle: saline) was 100 % of control and the T/C (endpoint: median survival time, dose: 8.4 mg/kg/injection, schedule: Q01DX Z (sc), vehicle: saline) was 100 % of control. The T/C (endpoint: median survival time, dose: 14.0 mg/kg/injection, schedule: Q01DX Z (sc), vehicle: saline) was 90 % of control and the T/C (endpoint: median survival time, dose: 23.0 mg/kg/injection, schedule: Q01DX Z (sc), vehicle: saline) was 90 % of control.
